# According to patent US9833497B2, “Human originated EGF domain proteins and use of the same” (CHENGDU SOURCEBIO LIMITED-LIABILITY COMPANY, priority 2013, dated 2017):
# Tests used:
# Type in all cases: cell-based
# Pseudomonas aeruginosa = assay: MIC against Gram-negative bacteria: Pseudomonas aeruginosa; settings: for MIC against P. aeruginosa / MIC (μg/mL) P. aeruginosa: Pseudomonas aeruginosa, 96-well plate, 37° C., 10 h
# How it was run: (§1)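 Antibacterial activity of purified human EGF domain proteins: two-fold concentration series, triplicate wells, LB broth, 5×10^5 CFU/mL bacteria, 37° C shaking incubation. The lowest concentration without growth defines the MIC.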
# Enterobacter cloacae = assay: MIC against Gram-negative bacteria: Enterobacter cloacae; settings: for MIC against E. cloacae / MIC (μg/mL) E. cloacae: Enterobacter cloacae, 96-well plate, 37° C., 10 h
# How it was run: as §1
# E. coli DH5α = assay: Antibacterial activity: MIC and growth curve against E. coli DH5α in 96-well plate; settings: minimal inhibitory concentration against E. coli DH5α; 96-well plate, 5×10^5 CFU/mL, 37° C., judged after 8 h
# How it was run: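 Log-phase bacteria (OD600 ~0.5) resuspended in LB at 5×10^5 CFU/mL, exposed to recombinant protein at 50, 25, 12.5 μg/mL final in triplicate, 37 °C shaking at 175 rpm. OD600 read every 30 min; MIC is lowest concentration showing no growth.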
# Proteus vulgaris = assay: MIC against Gram-negative bacteria: Proteus vulgaris; settings: for MIC against P. vulgaris / MIC (μg/mL) P. vulgaris: Proteus vulgaris, 96-well plate, 37° C., 10 h
# How it was run: as §1
# Klebsiella pneumonia = assay: MIC against Gram-negative bacteria: Klebsiella pneumonia; settings: for MIC against K. pneumonia / MIC (μg/mL) K. pneumonia: Klebsiella pneumonia, 96-well plate, 37° C., 10 h
# How it was run: as §1
# Proteus mirabilis = assay: MIC against Gram-negative bacteria: Proteus mirabilis; settings: for MIC against P. mirabilis / MIC (μg/mL) P. mirabilis: Proteus mirabilis, 96-well plate, 37° C., 10 h
# How it was run: as §1
# Citrobacter diversus = assay: MIC against Gram-negative bacteria: Citrobacter diversus; settings: for MIC against C. diversus / MIC (μg/mL) C. diversus: Citrobacter diversus, 96-well plate, 37° C., 10 h
# How it was run: as §1
# Moraxella catarrhalis = assay: MIC against Gram-negative bacteria: Moraxella catarrhalis; settings: for MIC against M. catarrhalis / MIC (μg/mL) M. catarrhalis: Moraxella catarrhalis, 96-well plate, 37° C., 10 h
# How it was run: as §1
# E. coli BL21 = assay: MIC against Gram-negative bacteria: E. coli BL21; settings: for MIC against E. coli BL21 / MIC (μg/mL) E. coli BL21: 96-well plate, 37° C., 10 h
# How it was run: as §1
# Aeromonas hydrophila = assay: MIC against Gram-negative bacteria: Aeromonas hydrophila; settings: for MIC against A. hydrophila / MIC (μg/mL) A. hydrophila: Aeromonas hydrophila, 96-well plate, 37° C., 10 h
# How it was run: as §1
# Serratia marcescens = assay: MIC against Gram-negative bacteria: Serratia marcescens; settings: for MIC against S. marcescens / MIC (μg/mL) S. marcescens: Serratia marcescens, 96-well plate, 37° C., 10 h
# How it was run: as §1
# [1] = 10 h cultivation at 37° C., 5×10^5 CFU/mL, two-fold serial dilution
substance,measurement,setting,value
PRT1306 (CSLLCLPKANNSRSCRCPEDVSSSVLPSGDLMCDCPQGYQLKNNTCV; listed as Homo sapiens),MIC against P. aeruginosa,Pseudomonas aeruginosa; 5×10^5 CFU/mL,12.5 µg/mL
same,MIC against E. cloacae,Enterobacter cloacae; 5×10^5 CFU/mL,12.5 µg/mL
same,MIC,E. coli DH5α,25 µg/mL
same,MIC against P. vulgaris,Proteus vulgaris; 5×10^5 CFU/mL,25 µg/mL
same,MIC against K. pneumonia,Klebsiella pneumonia; 5×10^5 CFU/mL,50 µg/mL
same,MIC against P. mirabilis,Proteus mirabilis; 5×10^5 CFU/mL,12.5 µg/mL
same,MIC against C. diversus,Citrobacter diversus; 5×10^5 CFU/mL,50 µg/mL
same,MIC against M. catarrhalis,Moraxella catarrhalis; 5×10^5 CFU/mL,25 µg/mL
same,MIC against E. coli BL21,"E. coli BL21; E. coli BL21, 5×10^5 CFU/mL",50 µg/mL
same,MIC against A. hydrophila,Aeromonas hydrophila; 5×10^5 CFU/mL,25 µg/mL
same,MIC against S. marcescens,Serratia marcescens; 5×10^5 CFU/mL,50 µg/mL
PRT1496 (EISKCPQPCRNGGKCIGKSKCKCSKGYQGDLCS; listed as Homo sapiens),MIC (μg/mL) P. aeruginosa,Pseudomonas aeruginosa; 5×10^5 CFU/mL,12.5 µg/mL
same,MIC (μg/mL) E. cloacae,Enterobacter cloacae; 5×10^5 CFU/mL,100 µg/mL
same,MIC,E. coli DH5α,50 µg/mL
same,MIC (μg/mL) P. vulgaris,Proteus vulgaris; 5×10^5 CFU/mL,100 µg/mL
same,MIC (μg/mL) K. pneumonia,Klebsiella pneumonia; 5×10^5 CFU/mL,12.5 µg/mL
same,MIC (μg/mL) P. mirabilis,Proteus mirabilis; 5×10^5 CFU/mL,50 µg/mL
same,MIC (μg/mL) C. diversus,Citrobacter diversus; 5×10^5 CFU/mL,50 µg/mL
same,MIC (μg/mL) M. catarrhalis,Moraxella catarrhalis; 5×10^5 CFU/mL,12.5 µg/mL
same,MIC (μg/mL) E. coli BL21,"E. coli BL21; E. coli BL21, 5×10^5 CFU/mL",25 µg/mL
same,MIC (μg/mL) A. hydrophila,Aeromonas hydrophila; 5×10^5 CFU/mL,50 µg/mL
same,MIC (μg/mL) S. marcescens,Serratia marcescens; 5×10^5 CFU/mL,25 µg/mL
PRT1224 (PPGDCASHPCQNGGSCEPGLHSGFTCSCPDSHTGRTCE; listed as Homo sapiens),MIC against P. aeruginosa,Pseudomonas aeruginosa; 5×10^5 CFU/mL,25 µg/mL
same,MIC against E. cloacae,Enterobacter cloacae; 5×10^5 CFU/mL,25 µg/mL
same,MIC,E. coli DH5α,25 µg/mL
same,MIC against P. vulgaris,Proteus vulgaris; 5×10^5 CFU/mL,12.5 µg/mL
same,MIC against K. pneumonia,Klebsiella pneumonia; 5×10^5 CFU/mL,12.5 µg/mL
same,MIC against P. mirabilis,Proteus mirabilis; 5×10^5 CFU/mL,50 µg/mL
same,MIC against C. diversus,Citrobacter diversus; 5×10^5 CFU/mL,12.5 µg/mL
same,MIC against M. catarrhalis,Moraxella catarrhalis; 5×10^5 CFU/mL,25 µg/mL
same,MIC against E. coli BL21,"E. coli BL21; E. coli BL21, 5×10^5 CFU/mL",50 µg/mL
same,MIC against A. hydrophila,Aeromonas hydrophila; 5×10^5 CFU/mL,50 µg/mL
same,MIC against S. marcescens,Serratia marcescens; 5×10^5 CFU/mL,50 µg/mL
PRT1272 (DVDECVEGTDNCHIDAICQNTPRSYKCICKSGYTGDGKHCK; listed as Homo sapiens),MIC against P. aeruginosa,Pseudomonas aeruginosa; 5×10^5 CFU/mL,100 µg/mL
same,MIC against E. cloacae,Enterobacter cloacae; 5×10^5 CFU/mL,25 µg/mL
same,MIC,E. coli DH5α,25 µg/mL
same,MIC against P. vulgaris,Proteus vulgaris; 5×10^5 CFU/mL,12.5 µg/mL
same,MIC against K. pneumonia,Klebsiella pneumonia; 5×10^5 CFU/mL,50 µg/mL
same,MIC against P. mirabilis,Proteus mirabilis; 5×10^5 CFU/mL,50 µg/mL
same,MIC against C. diversus,Citrobacter diversus; 5×10^5 CFU/mL,50 µg/mL
same,MIC against M. catarrhalis,Moraxella catarrhalis; 5×10^5 CFU/mL,12.5 µg/mL
same,MIC against E. coli BL21,"E. coli BL21; E. coli BL21, 5×10^5 CFU/mL",50 µg/mL
same,MIC against A. hydrophila,Aeromonas hydrophila; 5×10^5 CFU/mL,12.5 µg/mL
same,MIC against S. marcescens,Serratia marcescens; 5×10^5 CFU/mL,50 µg/mL
PRT1175 (AEHACLSDPCHNRGSCKETSLGFECECSPGWTGPTCS; listed as Homo sapiens),MIC P. aeruginosa,Pseudomonas aeruginosa; [1],50 µg/mL
same,MIC E. cloacae,Enterobacter cloacae; [1],12.5 µg/mL
same,MIC,E. coli DH5α,12.5 µg/mL
same,MIC P. vulgaris,Proteus vulgaris; [1],50 µg/mL
same,MIC K. pneumonia,Klebsiella pneumonia; [1],25 µg/mL
same,MIC P. mirabilis,Proteus mirabilis; [1],25 µg/mL
same,MIC C. diversus,Citrobacter diversus; [1],25 µg/mL
same,MIC M. catarrhalis,Moraxella catarrhalis; [1],12.5 µg/mL
same,MIC E. coli BL21,E. coli BL21; [1],25 µg/mL
same,MIC A. hydrophila,Aeromonas hydrophila; [1],50 µg/mL
same,MIC S. marcescens,Serratia marcescens; [1],25 µg/mL
PRT1007 (HVNPCESRPCQNGATCMAQPSGYLCQCAPGYDGQNCS; listed as Homo sapiens),MIC,"Pseudomonas aeruginosa; P. aeruginosa, 10 h cultivation at 37° C.",25 µg/mL
same,MIC,"Enterobacter cloacae; E. cloacae, 10 h cultivation at 37° C.",12.5 µg/mL
same,MIC,E. coli DH5α,25 µg/mL
same,MIC,"Proteus vulgaris; P. vulgaris, 10 h cultivation at 37° C.",12.5 µg/mL
same,MIC,"Klebsiella pneumonia; K. pneumonia, 10 h cultivation at 37° C.",50 µg/mL
same,MIC,"Proteus mirabilis; P. mirabilis, 10 h cultivation at 37° C.",25 µg/mL
same,MIC,"Citrobacter diversus; C. diversus, 10 h cultivation at 37° C.",12.5 µg/mL
same,MIC,"Moraxella catarrhalis; M. catarrhalis, 10 h cultivation at 37° C.",50 µg/mL
same,MIC,"E. coli BL21; E. coli BL21, 10 h cultivation at 37° C.",12.5 µg/mL
same,MIC,"Aeromonas hydrophila; A. hydrophila, 10 h cultivation at 37° C.",50 µg/mL
same,MIC,"Serratia marcescens; S. marcescens, 10 h cultivation at 37° C.",25 µg/mL
PRT40 (KGIDCSDGFNGGCEQLCLQQTLPLPYDATSSTIFMFCGCVEEYKLAPDGKSCL; listed as Homo sapiens),MIC (μg/mL) P. aeruginosa,Pseudomonas aeruginosa; 5×10^5 CFU/mL,25 µg/mL
same,MIC (μg/mL) E. cloacae,Enterobacter cloacae; 5×10^5 CFU/mL,25 µg/mL
same,MIC,E. coli DH5α,25 µg/mL
same,MIC (μg/mL) P. vulgaris,Proteus vulgaris; 5×10^5 CFU/mL,25 µg/mL
same,MIC (μg/mL) K. pneumonia,Klebsiella pneumonia; 5×10^5 CFU/mL,12.5 µg/mL
same,MIC (μg/mL) P. mirabilis,Proteus mirabilis; 5×10^5 CFU/mL,12.5 µg/mL
same,MIC (μg/mL) C. diversus,Citrobacter diversus; 5×10^5 CFU/mL,25 µg/mL
same,MIC (μg/mL) M. catarrhalis,Moraxella catarrhalis; 5×10^5 CFU/mL,12.5 µg/mL
same,MIC (μg/mL) E. coli BL21,"E. coli BL21; E. coli BL21, 5×10^5 CFU/mL",12.5 µg/mL
same,MIC (μg/mL) A. hydrophila,Aeromonas hydrophila; 5×10^5 CFU/mL,50 µg/mL
same,MIC (μg/mL) S. marcescens,Serratia marcescens; 5×10^5 CFU/mL,12.5 µg/mL
